According to publication PMC11944910, “N-(9-Acridinyl) Amino Acid Derivatives: Synthesis and In Vitro Evaluation of Anti-Toxoplasma gondii Activity” (Pharmaceutics, 2025):
Where “and” joins values, the source holds several entries; their conditions need not be identical. Equal entries are not always repeated.

Assays:
[1] = Solution stability by HPLC; type: physicochemical; details: pH 2 (0.01 M HCl) 2 h; pH 5.5 and pH 7.4 phosphate buffer 4 h
Protocol: Solubility and stability testing was conducted for three of the derivatives, evaluated as potential in vivo testing candidates, namely AAD1, AAD2 and AAD8. The stability of the synthesized AADs was evaluated in mediums with three different pH values: 2 (0.01 M HCl), 5.5 (phosphate buffer) and 7.4 (phosphate buffer). Stability was tested by employing a HPLC method, using an Agilent 1200 chromatograph (Agilent Technologies, Palo Alto, CA, USA) and Zorbax Extend C18 column (Agilent Technologies, Palo Alto, CA, USA). The mobile phase consisted of acetonitrile and water (pH was adjusted to 3.2 using phosphoric acid) at a ratio of 30:70 (v/v) for all three AADs. Column temperature was adjusted to 25 °C, while the flow rate was […]. UV detection was performed at 220, 230, 254, 265 and 280 nm. In short, samples (solutions of the investigated AADs in the appropriate mediums) were injected twice into the HPLC column: the first time right after the preparation of the solutions, and the second time after the stability testing interval—two hours for the pH 2 solution and four hours for the pH 5.5 and 7.4 solutions. At the end of the incubation intervals, the decrease in peak areas and occurrence of additional peaks on chromatograms were analyzed in comparison with the chromatograms obtained right after the preparation of the solutions.

[2] = system: T. gondii RH strain tachyzoites; assay: Anti-T. gondii activity screening (viable tachyzoite count, Trypan blue); type: cell-based, Toxoplasma gondii; details: 25 µM, 24 h, compared to untreated control
Protocol: T. gondii RH strain tachyzoites were obtained from the NRL for Toxoplasmosis, Institute for Medical Research, Belgrade, Serbia, where the RH strain is regularly maintained via passages using female Swiss-Webster mice twice a week (Ethical license no. 323-07-02445/2014-05/1).
The anti-T. gondii activity of the AADs was evaluated according to previously described methodology, slightly modified by using the DMEM culture medium supplemented with 10% bovine calf serum (BCS) without antibiotics (referred to as modified D10 medium). RH strain T. gondii tachyzoites were harvested from the intraperitoneal exudate of infected mice during routine passage of the strain at the NRL for toxoplasmosis. The sample (intraperitoneal lavage fluid of RH strain-infected mice) was then washed three times using Dulbecco Phosphate Buffered Saline (DPBS) (Thermofisher Scientific, Waltham, MA, USA) and centrifuged at 2.500 rpm for five minutes to obtain a pellet consisting of RH strain tachyzoites only. The pellet was then resuspended, and the parasite count was determined by Trypan blue vital staining, using a Bürker-Türk counting chamber. Tachyzoites were resuspended in an appropriate volume of DMEM culture medium to achieve the required tachyzoite concentration. A suspension of tachyzoites (2 × 10^6 tachyzoites/well, in 100 μL volume) was then seeded into a 96-well microplate and exposed to a 25 µM concentration of 10 AADs, as well as a combination of PYR+SDZ, for 24 h. All samples, including the untreated control consisting of RH strain tachyzoites in a modified D10 culture medium, were tested in triplicates.
After 24 h, 20 µL of sample was collected from each well, mixed with an equal volume of Trypan blue stain, and the number of viable tachyzoites was determined using a Bürker-Türk counting chamber. The reduction in the number of viable tachyzoites compared to untreated control was calculated using the following formula:(1) Reduction %=100%−(median value of number of viable tachyzoites in test wells/median value of number of viable tachyzoites in control wells×100%)

[3] = MTT cytotoxicity assay on non-infected Vero cells; type: cell-based; details: Chlorocebus sabaeus (African green monkey), non-infected Vero cells (ATCC CCL-81), 72 h incubation
Excerpt: The Vero cell line (ATCC® CCL-81), derived from the kidney tissue of the Green African monkey (Chlorocebus sabaeus), was utilized as a model of non-infected cells in the cytotoxicity assay. The cells were thawed from stocks maintained in liquid nitrogen at the National Reference Laboratory (NRL) for Toxoplasmosis and cultured in D10 medium—Advanced Dulbecco’s Modified Eagle Medium (DMEM) (Thermo Fisher Scientific, Waltham, MA, USA), supplemented with 10% bovine calf serum (BCS) (Sigma-Aldrich, St. Louis, MO, USA), 1% HEPES buffer (Thermo Fisher Scientific, Waltham, MA, USA), and 1% penicillin-streptomycin (Pen/Strep) solution (Thermo Fisher Scientific, Waltham, MA, USA) in T25 and T75 flasks. Depending on confluency, cells were subcultured 1–2 times per week.
The MTT colorimetric assay, a widely used method for assessing the cytotoxicity of newly synthesized compounds, was used to evaluate the toxic effect of AADs on non-infected cells. This assay is based on the ability of metabolically active, viable cells to reduce the yellow 3-(4,5-dimethylthiazol-2-yl)-2,5-diphenyltetrazolium bromide (MTT) reagent to purple formazan. The number of viable cells in the well is directly proportional to the intensity of the resulting color. The MTT assay was performed according to the manufacturer’s instructions using the In Vitro Toxicology Assay Kit (MTT-based, Sigma-Aldrich, St. Louis, MO, USA), with a protocol specifically modified to accommodate the cell line and derivatives analyzed in this study.
In brief, Vero cells were seeded in a 96-well plate, at a density of 25,000 cells per well and incubated for 24 h at 37 °C in a 5% CO2 atmosphere. After the incubation period, the supernatant was removed from each well and replaced with serial dilutions of the analyzed derivatives, as well as with the combination of PYR+SDZ (Sigma-Aldrich, St. Louis, MO, USA) as a positive control. All compounds were investigated in five different concentrations, ranging from 100 μM to 6.25 μM, using a two-fold serial dilution method. The positive control was tested in the range of 0.4 μM + 100 μM to 0.025 μM + 6.25 μM (ratio of PYR+SDZ adjusted according to the literature). In negative control wells, containing only non-infected Vero cells, the discarded supernatant was replaced by a new amount of D10 medium. Blank wells, used to account for any background signal from the colored culture medium, contained only D10 medium. All samples, including controls and blanks, were analyzed in triplicates.
Samples containing Vero cells with added AADs or the positive control were incubated for 72 h. After incubation, the supernatant was discarded, and a new amount of D10 medium (100 μL) was added to each well. The MTT reagent (10 μL, […]) was subsequently added to each well, and the plates were incubated for an additional four hours. After the incubation period, the supernatant was discarded, and the resulting formazan crystals were dissolved using the solubilizing solution from the In Vitro Toxicology Assay Kit. Absorbance was measured at 540 nm using an ELISA plate reader (Multiskan EX, Thermofisher Scientific, Waltham, MA, USA). Data analysis was conducted, and CC50 values (cytotoxic concentration used to lyse/inhibit average of 50% of cells) were obtained using nonlinear regression in GraphPad Prism 10.4.1 (GraphPad Software Inc., La Jolla, CA, USA).

[4] = Solubility by visual inspection; type: physicochemical; details: for Solubility on dilution of DMSO solution in pH 7.4 phosphate buffer: diluted up to 10,000 times in pH 7.4 phosphate buffer; for solubility: organic solvent or mixture, DMSO, tested up to 30 mM, read-out: Solubility in DMSO (clear and transparent solutions)
Protocol: Solubility and stability testing was conducted for three of the derivatives, evaluated as potential in vivo testing candidates, namely AAD1, AAD2 and AAD8. Solubility was evaluated using a visual inspection method, checking the clarity and opalescence of different concentrations (up to 30 mM) of dimethyl sulfoxide (DMSO) solutions of the mentioned AADs, as well as of their further dilutions with the pH 7.4 phosphate buffer (100-, 1000- and 10,000-times dilutions).

## CCOC(=O)CCCCCNc1c2ccccc2nc2ccccc12 [AAD1]
[1]
  Solution stability (HPLC peak area, additional peaks): stable
[2]
  Viability Reduction of T. gondii Tachyzoites: 24.7%
[3]
  CC50 at 72 h: 41.7 µM
[4]
  Solubility on dilution of DMSO solution in pH 7.4 phosphate buffer: maintaining solubility
  solubility: ≥ 30 mM

## Cn1cc(CC(Nc2c3ccccc3nc3ccccc23)C(=O)O)c2ccccc21 (stereo not shown) [AAD2]
[1]
  Solution stability (HPLC peak area, additional peaks): stable
[3]
  CC50 at 72 h: 60.2 µM
[4]
  Solubility on dilution of DMSO solution in pH 7.4 phosphate buffer: maintaining solubility
  solubility: ≥ 30 mM

## COC(=O)CCCCCCCNc1c2ccccc2nc2ccccc12 [AAD3]
[2]
  Viability Reduction of T. gondii Tachyzoites: 15.2%
[3]
  CC50 at 72 h: 88.4 µM

## COC(=O)C(Cc1c[nH]cn1)Nc1c2ccccc2nc2ccccc12 (stereo not shown) [AAD4]
[2]
  Viability Reduction of T. gondii Tachyzoites: 4.5%
[3]
  CC50 at 72 h: 134 µM

## O=C(O)CCCCCCCNc1c2ccccc2nc2ccccc12 [AAD6, 8-(acridin-9-ylamino) octanoic acid]
[2]
  Viability Reduction of T. gondii Tachyzoites: 22.0%
[3]
  CC50 at 72 h: 154 µM

## O=C(O)CCCCCNc1c2ccccc2nc2ccccc12 [AAD7, 6-(acridin-9-ylamino) hexanoic acid]
[2]
  Viability Reduction of T. gondii Tachyzoites: 20.9% and 20.5%
[3]
  CC50 at 72 h: 93 µM

## O=C(O)CCCNc1c2ccccc2nc2ccccc12 [AAD8, 4-(acridin-9-ylamino) butanoic acid]
[1]
  Solution stability (HPLC peak area, additional peaks): stable
[2]
  Viability Reduction of T. gondii Tachyzoites: 33.3%
[3]
  CC50 at 72 h: 102 µM
[4]
  Solubility on dilution of DMSO solution in pH 7.4 phosphate buffer: maintaining solubility
  solubility: ≥ 30 mM

## O=C(O)[C@H](Cc1ccccc1)Nc1c2ccccc2nc2ccccc12 [AAD9, (S) 2-(acridin-9-ylamino)-3-phenylpropanoic acid]
[3]
  CC50 at 72 h: 50.2 µM

## O=C(O)CCNc1c2ccccc2nc2ccccc12 [AAD10, 3-(acridin-9-ylamino) propanoic acid]
[2]
  Viability Reduction of T. gondii Tachyzoites: 21.9%
[3]
  CC50 at 72 h: 177 µM
